In brackets after ≈: the same amount, converted by molar mass.
Assays:
Assay in all cases: minimal inhibitory concentration, two-fold agar dilution
Type in all cases: cell-based
[1] = system: Providencia rettgeri ATCC 9250; conditions: ATCC9250, Muller-Hinton agar, 37°C, 20 hours, read-out: MIC values against the standard strains
Procedure, shortened: (§1)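 Compounds were serially diluted two-fold into Mueller-Hinton agar, and each plate was spot-inoculated with the test strain at 10⁷ CFU per ml. Plates were incubated at 37°C for 20 hours before MIC values were read.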

[2] = system: Proteus mirabilis ATCC 25933; conditions: ATCC25933, Muller-Hinton agar, 37°C, 20 hours, read-out: MIC values against the standard strains
Procedure, shortened: as §1

[3] = system: Streptococcus faecalis ATCC 29212; conditions: Enterococcus faecalis, ATCC29212; Muller-Hinton agar; 37°C; 20 hours; read-out: MIC values against the standard strains
Procedure, shortened: as §1

[4] = system: Staphylococcus aureus ATCC 6538p; conditions: ATCC6538P, Muller-Hinton agar, 37°C, 20 hours, read-out: MIC values against the standard strains
Procedure, shortened: as §1

[5] = system: Citrobacter freundii ATCC 8090; conditions: ATCC8090, Muller-Hinton agar, 37°C, 20 hours, read-out: MIC values against the standard strains
Procedure, shortened: as §1

[6] = system: Escherichia coli ATCC 25922; conditions: ATCC25922, Muller-Hinton agar, 37°C, 20 hours, read-out: MIC values against the standard strains
Procedure, shortened: as §1

[7] = system: Morganella morganii ATCC 8076h; conditions: ATCC8076H, Muller-Hinton agar, 37°C, 20 hours, read-out: MIC values against the standard strains
Procedure, shortened: as §1

[8] = system: Pseudomonas aeruginosa ATCC 10145; conditions: ATCC10145, Muller-Hinton agar, 37°C, 20 hours, read-out: MIC values against the standard strains
Procedure, shortened: as §1

[9] = system: Micrococcus luteus ATCC 9341; conditions: ATCC9341, Muller-Hinton agar, 37°C, 20 hours, read-out: MIC values against the standard strains
Procedure, shortened: as §1

[10] = system: Bacillus megaterium ATCC 9885; conditions: Priestia megaterium, ATCC9885; Muller-Hinton agar; 37°C; 20 hours; read-out: MIC values against the standard strains
Procedure, shortened: as §1

[11] = system: Acinetobacter calcoaceticus ATCC 15437; conditions: ATCC15437, Muller-Hinton agar, 37°C, 20 hours, read-out: MIC values against the standard strains
Procedure, shortened: as §1

[12] = system: Pseudomonas aeruginosa ATCC 27853; conditions: ATCC27853, Muller-Hinton agar, 37°C, 20 hours, read-out: MIC values against the standard strains
Procedure, shortened: as §1

[13] = system: Escherichia coli ATCC 10536; conditions: ATCC10536, Muller-Hinton agar, 37°C, 20 hours, read-out: MIC values against the standard strains
Procedure, shortened: as §1

[14] = system: Pseudomonas aeruginosa ATCC 25619; conditions: ATCC25619, Muller-Hinton agar, 37°C, 20 hours, read-out: MIC values against the standard strains
Procedure, shortened: as §1

[15] = system: Staphylococcus aureus ATCC 10537; conditions: ATCC10537, Muller-Hinton agar, 37°C, 20 hours, read-out: MIC values against the standard strains
Procedure, shortened: as §1

[16] = system: Bacillus cereus ATCC 11778; conditions: ATCC11778, Muller-Hinton agar, 37°C, 20 hours, read-out: MIC values against the standard strains
Procedure, shortened: as §1

[17] = system: Staphylococcus epidermidis ATCC 12228; conditions: ATCC12228, Muller-Hinton agar, 37°C, 20 hours, read-out: MIC values against the standard strains
Procedure, shortened: as §1

[18] = system: Proteus vulgaris ATCC 6059; conditions: ATCC6059, Muller-Hinton agar, 37°C, 20 hours, read-out: MIC values against the standard strains
Procedure, shortened: as §1

[19] = system: Shigella flexneri ATCC 11836; conditions: ATCC11836, Muller-Hinton agar, 37°C, 20 hours, read-out: MIC values against the standard strains
Procedure, shortened: as §1

[20] = system: Enterobacter cloacae ATCC 27508; conditions: ATCC27508, Muller-Hinton agar, 37°C, 20 hours, read-out: MIC values against the standard strains
Procedure, shortened: as §1

[21] = system: Serratia marcescens ATCC 27117; conditions: ATCC27117, Muller-Hinton agar, 37°C, 20 hours, read-out: MIC values against the standard strains
Procedure, shortened: as §1

[22] = system: Salmonella typhimurium ATCC 14028; conditions: Salmonella enterica; Muller-Hinton agar; 37°C; 20 hours; read-out: MIC values against the standard strains
Procedure, shortened: as §1

[23] = system: Klebsiella pneumoniae ATCC 10031; conditions: ATCC10031, Muller-Hinton agar, 37°C, 20 hours, read-out: MIC values against the standard strains
Procedure, shortened: as §1

[24] = system: Enterobacter aerogenes ATCC 29751; conditions: Klebsiella aerogenes, ATCC29751; Muller-Hinton agar; 37°C; 20 hours; read-out: MIC values against the standard strains
Procedure, shortened: as §1

[25] = system: Shigella sonnei ATCC 11060; conditions: ATCC11060, Muller-Hinton agar, 37°C, 20 hours, read-out: MIC values against the standard strains
Procedure, shortened: as §1

[26] = system: Acinetobacter calcoaceticus ATCC 15473; conditions: ATCC15473, Muller-Hinton agar, 37°C, 20 hours, read-out: MIC values against the standard strains
Procedure, shortened: as §1

Compound | MIC [1] | MIC [2] | MIC [3] | MIC [4] | MIC [5] | MIC [6] | MIC [7] | MIC [8] | MIC [9] | MIC [10] | MIC [12] | MIC [13] | MIC [14] | MIC [15] | MIC [16] | MIC [17] | MIC [18] | MIC [19] | MIC [20] | MIC [21] | further results
C[n+]1c(SCC2=C(C(=O)[O-])N3C(=O)[C@@H](NC(=O)/C(=N\OC(C)(C)C(=O)O)c4csc(N)n4)[C@H]3SC2)nc(N)c(N)c1N [Example 1] | ≤ 0.008 µg/mL | 0.063 µg/mL (≈ 0.0986 µM) | > 128 µg/mL | 8 µg/mL (≈ 12.5 µM) | 0.13 µg/mL (≈ 0.204 µM) | 0.063 µg/mL (≈ 0.0986 µM) | ≤ 0.008 µg/mL | 2 µg/mL (≈ 3.13 µM) | 0.25 µg/mL (≈ 0.391 µM) | 0.25 µg/mL (≈ 0.391 µM) | 1 µg/mL (≈ 1.57 µM) | 0.13 µg/mL (≈ 0.204 µM) | 1 µg/mL (≈ 1.57 µM) | 2 µg/mL (≈ 3.13 µM) | 128 µg/mL (≈ 200 µM) | 2 µg/mL (≈ 3.13 µM) | 0.063 µg/mL (≈ 0.0986 µM) | 0.031 µg/mL (≈ 0.0485 µM) | 0.016 µg/mL (≈ 0.0251 µM) | 0.25 µg/mL (≈ 0.391 µM) | MIC [11]: 8 µg/mL (≈ 12.5 µM); MIC [22]: 0.25 µg/mL (≈ 0.391 µM); MIC [23]: 0.063 µg/mL (≈ 0.0986 µM); MIC [24]: 2 µg/mL (≈ 3.13 µM); MIC [25]: 0.13 µg/mL (≈ 0.204 µM)
CC(C)(O/N=C(\C(=O)N[C@@H]1C(=O)N2C(C(=O)[O-])=C(CSc3nc(N)c(N)c[n+]3N)CS[C@H]12)c1csc(N)n1)C(=O)O [Example 47, 7-[(Z)-2-(2-aminothiazol-4-yl)-2-(carboxyprop-2-oxyimino)acetamido]-3-(1,4,5-triaminopyrimidinium-2-yl)thiomethyl-3-cephem-4-carboxylate] | ≤ 0.008 µg/mL | 0.063 µg/mL (≈ 0.101 µM) | > 128 µg/mL | 4 µg/mL (≈ 6.4 µM) | 0.031 µg/mL (≈ 0.0496 µM) | 0.031 µg/mL (≈ 0.0496 µM) | ≤ 0.008 µg/mL | 2 µg/mL (≈ 3.2 µM) | 0.25 µg/mL (≈ 0.4 µM) | 0.5 µg/mL (≈ 0.8 µM) | 2 µg/mL (≈ 3.2 µM) | 0.031 µg/mL (≈ 0.0496 µM) | 1 µg/mL (≈ 1.6 µM) | 2 µg/mL (≈ 3.2 µM) | 128 µg/mL (≈ 205 µM) | 2 µg/mL (≈ 3.2 µM) | 0.063 µg/mL (≈ 0.101 µM) | 0.031 µg/mL (≈ 0.0496 µM) | ≤ 0.008 µg/mL | 0.13 µg/mL (≈ 0.208 µM) | MIC [26]: 16 µg/mL (≈ 25.6 µM); MIC [22]: 0.13 µg/mL (≈ 0.208 µM); MIC [23]: 0.031 µg/mL (≈ 0.0496 µM); MIC [24]: 1 µg/mL (≈ 1.6 µM); MIC [25]: 0.031 µg/mL (≈ 0.0496 µM)
CN(C)c1cc(N)nc(SCC2=C(C(=O)[O-])N3C(=O)[C@@H](NC(=O)/C(=N\OC(C)(C)C(=O)O)c4csc(N)n4)[C@H]3SC2)[n+]1C [Example 50, 7-[(Z)-2-(2-aminothiazol-4-yl)-2-(carboxyprop-2-oxyimino)acetamido]-3-{4-amino-1-methyl-6-(N,N-dimethyl)aminopyrimidinium-2-yl}thiomethyl-3-cephem-4-carboxylate] | ≤ 0.008 µg/mL | 0.031 µg/mL (≈ 0.0476 µM) | > 128 µg/mL | 8 µg/mL (≈ 12.3 µM) | 0.063 µg/mL (≈ 0.0967 µM) | 0.063 µg/mL (≈ 0.0967 µM) | ≤ 0.008 µg/mL | 2 µg/mL (≈ 3.07 µM) | 0.25 µg/mL (≈ 0.384 µM) | 0.25 µg/mL (≈ 0.384 µM) | 1 µg/mL (≈ 1.53 µM) | 0.063 µg/mL (≈ 0.0967 µM) | 1 µg/mL (≈ 1.53 µM) | 4 µg/mL (≈ 6.14 µM) | 128 µg/mL (≈ 196 µM) | 2 µg/mL (≈ 3.07 µM) | 0.031 µg/mL (≈ 0.0476 µM) | 0.031 µg/mL (≈ 0.0476 µM) | ≤ 0.008 µg/mL | 0.13 µg/mL (≈ 0.199 µM) | MIC [26]: 4 µg/mL (≈ 6.14 µM); MIC [22]: 0.13 µg/mL (≈ 0.199 µM); MIC [23]: 0.063 µg/mL (≈ 0.0967 µM); MIC [24]: 0.5 µg/mL (≈ 0.767 µM); MIC [25]: 0.063 µg/mL (≈ 0.0967 µM)
Cc1c[n+](N)c(SCC2=C(C(=O)[O-])N3C(=O)[C@@H](NC(=O)/C(=N\OC(C)(C)C(=O)O)c4csc(N)n4)[C@H]3SC2)nc1N [Example 57] | ≤ 0.008 µg/mL | 0.031 µg/mL (≈ 0.0497 µM) | > 128 µg/mL | 8 µg/mL (≈ 12.8 µM) | 0.031 µg/mL (≈ 0.0497 µM) | 0.063 µg/mL (≈ 0.101 µM) | ≤ 0.008 µg/mL | 2 µg/mL (≈ 3.21 µM) | 0.25 µg/mL (≈ 0.401 µM) | 0.25 µg/mL (≈ 0.401 µM) | 2 µg/mL (≈ 3.21 µM) | 0.063 µg/mL (≈ 0.101 µM) | 1 µg/mL (≈ 1.6 µM) | 2 µg/mL (≈ 3.21 µM) | 128 µg/mL (≈ 205 µM) | 2 µg/mL (≈ 3.21 µM) | 0.031 µg/mL (≈ 0.0497 µM) | 0.063 µg/mL (≈ 0.101 µM) | ≤ 0.008 µg/mL | 0.13 µg/mL (≈ 0.208 µM) | MIC [26]: 16 µg/mL (≈ 25.7 µM); MIC [22]: 0.13 µg/mL (≈ 0.208 µM); MIC [23]: 0.063 µg/mL (≈ 0.101 µM); MIC [24]: 0.5 µg/mL (≈ 0.802 µM); MIC [25]: 0.063 µg/mL (≈ 0.101 µM)
Nc1cc[n+](N)c(SCC2=C(C(=O)[O-])N3C(=O)[C@@H](NC(=O)/C(=N\OCC(=O)O)c4csc(N)n4)[C@H]3SC2)n1 [Example 75, 7-[(Z)-2-(2-aminothiazol-4-yl)-2-(carboxymethoxyimino)acetamido]-3-(1,4-diaminopyrimidinium-2-yl)thiomethyl-3-cephem-4-carboxylate] | ≤ 0.008 µg/mL | 0.063 µg/mL (≈ 0.108 µM) | > 128 µg/mL | 8 µg/mL (≈ 13.8 µM) | 0.031 µg/mL (≈ 0.0533 µM) | 0.016 µg/mL (≈ 0.0275 µM) | ≤ 0.008 µg/mL | 8 µg/mL (≈ 13.8 µM) | 2 µg/mL (≈ 3.44 µM) | 0.5 µg/mL (≈ 0.86 µM) | 4 µg/mL (≈ 6.88 µM) | 0.016 µg/mL (≈ 0.0275 µM) | 4 µg/mL (≈ 6.88 µM) | 4 µg/mL (≈ 6.88 µM) | 128 µg/mL (≈ 220 µM) | 4 µg/mL (≈ 6.88 µM) | 0.031 µg/mL (≈ 0.0533 µM) | 0.016 µg/mL (≈ 0.0275 µM) | ≤ 0.008 µg/mL | 0.031 µg/mL (≈ 0.0533 µM) | MIC [26]: 4 µg/mL (≈ 6.88 µM); MIC [22]: 0.063 µg/mL (≈ 0.108 µM); MIC [23]: 0.016 µg/mL (≈ 0.0275 µM); MIC [24]: 0.5 µg/mL (≈ 0.86 µM); MIC [25]: 0.016 µg/mL (≈ 0.0275 µM)
